Measured values from the supplement of paper PMC6045584.
± gives the standard deviation of the averaged measurements.

Experiments:
DOXORUBICIN [1] = compound: T1, COc1cccc2c1C(=O)c1c(O)c3c(c(O)c1C2=O)C[C@@](O)(C(=O)CO)C[C@@H]3O[C@H]1C[C@H](N)[C@H](O)[C@H](C)O1 [DOXORUBICIN]; test: surviving fraction relative to DMSO-only wells; higher = less growth inhibition; conditions: exposure time: 5 days
Summary of the method: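 After seeding at 250–500 cells per well in 384-well plates and a 24-hour wait, log-phase tumour cell lines were exposed without interruption for five days to inhibitors at 0.5, 1, 5, 10, 50, 100, 500 and 1000 nM. CellTiter-Glo luminescence was recorded after 10 minutes at room temperature. Viability is reported as surviving fraction, the luminescence normalised to the median of DMSO-only wells.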

[2] = compound: CCN(CC)CCCCNc1ncc2cc(-c3cc(OC)cc(OC)c3)c(NC(=O)NC(C)(C)C)nc2n1; test: area under dose-response curve of surviving fraction (unscaled, Aref=0) (surviving fraction x log10(nM)); higher = more resistant; conditions: exposure time: 5 days; dose range 0.5-1000 nM
Summary of the method: (§1)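 Three screens per tumour cell line were run in 384-well plates at eight inhibitor concentrations from 0.5 to 1000 nM over five days. Surviving fractions, from CellTiter-Glo luminescence normalised to DMSO-only wells, were fitted with 3-parameter logistic curves in the drc R package. The reported area under the curve is the unscaled activity area. It spans log10 dose, and Aref is 0.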

LAPATINIB = compound: CS(=O)(=O)CCNCc1ccc(-c2ccc3ncnc(Nc4ccc(OCc5cccc(F)c5)c(Cl)c4)c3c2)o1 [LAPATINIB]; test: as above; conditions: exposure time: 5 days; dose range 0.5-1000 nM
Summary of the method: as §1

DECITABINE = compound: Nc1ncn([C@H]2C[C@H](O)[C@@H](CO)O2)c(=O)n1 [DECITABINE]; test: as above; conditions: exposure time: 5 days; dose range 0.5-1000 nM
Summary of the method: as §1

RESVERATROL = compound: Oc1ccc(/C=C/c2cc(O)cc(O)c2)cc1 [RESVERATROL]; test: as above; conditions: exposure time: 5 days; dose range 0.5-1000 nM
Summary of the method: as §1

17-AAG = compound: C=CCNC1=C2C[C@@H](C)C[C@H](OC)[C@H](O)[C@@H](C)/C=C(\C)[C@H](OC(N)=O)[C@@H](OC)/C=C\C=C(/C)C(=O)NC(=CC1=O)C2=O [17-AAG]; test: as above; conditions: exposure time: 5 days; dose range 0.5-1000 nM
Summary of the method: as §1

2-METHOXYESTRADIOL = compound: COc1cc2c(cc1O)CC[C@@H]1[C@@H]2CC[C@]2(C)[C@@H](O)CC[C@@H]12 [2-METHOXYESTRADIOL]; test: as above; conditions: exposure time: 5 days; dose range 0.5-1000 nM
Summary of the method: as §1

FLAVOPIRIDOL = compound: CN1CC[C@H](c2c(O)cc(O)c3c(=O)cc(-c4ccccc4Cl)oc23)[C@H](O)C1 [FLAVOPIRIDOL]; test: as above; conditions: exposure time: 5 days; dose range 0.5-1000 nM
Summary of the method: as §1

DOXORUBICIN [3] = compound: T1, DOXORUBICIN; test: as above; conditions: exposure time: 5 days; dose range 0.5-1000 nM
Summary of the method: as §1

SALINOMYCIN = compound: CC[C@@H](C(=O)[C@@H](C)[C@@H](O)[C@H](C)[C@@H]1O[C@@H]([C@@H](CC)C(=O)O)CC[C@@H]1C)[C@H]1O[C@]2(C=C[C@@H](O)[C@]3(CC[C@@](C)([C@H]4CC[C@](O)(CC)[C@H](C)O4)O3)O2)[C@H](C)C[C@@H]1C [SALINOMYCIN]; test: as above; conditions: exposure time: 5 days; dose range 0.5-1000 nM
Summary of the method: as §1

VISMODEGIB = compound: CS(=O)(=O)c1ccc(C(=O)Nc2ccc(Cl)c(-c3ccccn3)c2)c(Cl)c1 [VISMODEGIB]; test: as above; conditions: exposure time: 5 days; dose range 0.5-1000 nM
Summary of the method: as §1

ABT-737 = compound: CN(C)CC[C@H](CSc1ccccc1)Nc1ccc(S(=O)(=O)NC(=O)c2ccc(N3CCN(Cc4ccccc4-c4ccc(Cl)cc4)CC3)cc2)cc1[N+](=O)[O-] [ABT-737]; test: as above; conditions: exposure time: 5 days; dose range 0.5-1000 nM
Summary of the method: as §1

FLUOROURACIL = compound: O=c1[nH]cc(F)c(=O)[nH]1 [FLUOROURACIL]; test: as above; conditions: exposure time: 5 days; dose range 0.5-1000 nM
Summary of the method: as §1

Test System	surviving fraction (DOXORUBICIN [1]; 0.5 nM)	surviving fraction (DOXORUBICIN [1]; 1 nM)	surviving fraction (DOXORUBICIN [1]; 5 nM)	surviving fraction (DOXORUBICIN [1]; 10 nM)	surviving fraction (DOXORUBICIN [1]; 50 nM)	surviving fraction (DOXORUBICIN [1]; 100 nM)	surviving fraction (DOXORUBICIN [1]; 500 nM)	surviving fraction (DOXORUBICIN [1]; 1000 nM)	area under dose-response curve [2]	area under dose-response curve (LAPATINIB)	area under dose-response curve (DECITABINE)	area under dose-response curve (RESVERATROL)	area under dose-response curve (17-AAG)	area under dose-response curve (2-METHOXYESTRADIOL)	area under dose-response curve (FLAVOPIRIDOL)	area under dose-response curve (DOXORUBICIN [3])	area under dose-response curve (SALINOMYCIN)	area under dose-response curve (VISMODEGIB)	area under dose-response curve (ABT-737)	area under dose-response curve (FLUOROURACIL)
NY BONE	0.959 ± 0.019	0.966 ± 0.013	0.981 ± 0.015	0.876 ± 0.058	0.294 ± 0.015	0.201 ± 0.0044	0.0617 ± 0.004	0.0443 ± 0.0057	2.65	3.43	2.91	3.32	1.6	2.83	2.12	1.85	2.53	3.28	3.42	–
OS25HAL BONE	0.982 ± 0.016	0.974 ± 0.013	0.97033 ± 0.00058	0.965 ± 0.0076	0.258 ± 0.033	0.151 ± 0.01	0.0337 ± 0.0047	0.038 ± 0.003	3.27	3.47	3.53	3.4	2.56	3.02	2.25	1.87	2.57	3.29	3.39	–
OSHN BONE	1.04 ± 0.039	1.05 ± 0.059	1.05 ± 0.031	1.03 ± 0.028	0.299 ± 0.068	0.286 ± 0.062	0.0707 ± 0.0021	0.0503 ± 0.00058	3.35	3.55	3.71	3.6	2.3	3.21	2.31	1.98	2.81	3.27	3.58	–
SG27 HEADNECK	0.988 ± 0.057	0.967 ± 0.037	1.09 ± 0.094	1.04 ± 0.059	0.949 ± 0.038	0.867 ± 0.081	0.097 ± 0.014	0.0447 ± 0.019	3.03	–	3.79	3.59	2.94	3.61	2.29	2.61	2.95	3.18	–	3.48
SG28 HEADNECK	1.11 ± 0.12	1.11 ± 0.083	0.976 ± 0.081	1.03 ± 0.011	0.851 ± 0.13	0.609 ± 0.014	0.0457 ± 0.0098	0.038 ± 0.0036	3.28	–	–	–	1.95	–	–	2.4	2.71	3	–	–
SG31 HEADNECK	1.1 ± 0.095	1.03 ± 0.035	0.818 ± 0.035	0.717 ± 0.11	0.556 ± 0.03	0.495 ± 0.037	0.0787 ± 0.02	0.0363 ± 0.01	3.09	–	–	–	1.94	3.42	2.03	2.02	2.81	3.05	3.88	–
SG32 HEADNECK	1.19 ± 0.12	1.07 ± 0.27	0.828 ± 0.14	0.563 ± 0.099	0.414 ± 0.04	0.194 ± 0.019	0.04 ± 0.017	0.0313 ± 0.0081	3.36	3.6	–	3.38	1.96	2.92	1.72	1.68	2.42	–	3.48	–
SIHA CERVIX	0.996 ± 0.084	0.998 ± 0.08	1.04 ± 0.053	0.9867 ± 0.0011	0.505 ± 0.04	0.481 ± 0.0086	0.0967 ± 0.061	0.0287 ± 0.00058	3.08	3.53	3.46	3.61	2.23	3.15	2.19	2.16	2.93	–	3.73	–
SJSA1 BONE	1.02 ± 0.015	0.991 ± 0.027	0.927 ± 0.012	0.636 ± 0.052	0.564 ± 0.014	0.284 ± 0.013	0.0957 ± 0.005	0.0317 ± 0.0021	3.48	5.27	4.52	5.61	1.72	5.58	2.96	1.9	2.91	3.35	5.63	–
SUM149.B1*.S BREAST	1.03 ± 0.031	1.065 ± 0.0083	1.01 ± 0.043	0.931 ± 0.041	0.285 ± 0.0081	0.179 ± 0.014	0.068 ± 0.0038	0.0518 ± 0.0023	–	–	–	3.7	1.93	3.49	2.37	2	2.9	–	3.79	–
SUM159 BREAST	1.1 ± 0.14	1.08 ± 0.11	1.05 ± 0.11	0.964 ± 0.043	0.176 ± 0.045	0.173 ± 0.027	0.0397 ± 0.0021	0.039 ± 0.002	3.75	3.55	3.48	3.53	1.72	3.24	2.38	1.84	2.31	–	–	3.29
VCAP PROSTATE	1.18 ± 0.094	0.982 ± 0.1	1.1 ± 0.073	0.51 ± 0.028	1.02 ± 0.052	0.291 ± 0.0036	0.0377 ± 0.0064	0.0397 ± 0.015	3.48	3.07	3.68	3.11	2.25	3.12	2.26	2.3	2.89	3.36	3.49	–
ZR751 BREAST	1.12 ± 0.095	1.08 ± 0.16	0.786 ± 0.074	0.846 ± 0.12	0.585 ± 0.047	0.361 ± 0.054	0.174 ± 0.018	0.0463 ± 0.00058	3.3	2.92	–	3.31	1.74	–	2.38	2.06	2.67	2.87	3.53	–
